These results are taken from US9221838B2, “Inhibitors of AKT activity” (ALMAC DISCOVERY LIMITED, priority 2009, dated 2015).

Common to all, as to type: biochemical
One experiment deals with T1, AKT1 (Homo sapiens, UniProt P31749).
T1 construct: purchased SignalChem
The experiment is described as follows: AKT Kinase Assay (IMAP fluorescent polarisation) vs AKT1. How it is done: (§1) Testing of the compounds was performed using an AKT Kinase Assay:
(§2) Activated AKT isoforms 1, 2 and 3 were assayed utilising a 5′ FAM Crosstide (Seq. GRPRTSSFAEG-OH)(SEO ID NO: 1). The extent of kinase phosphorylation was determined by fluorescent polarisation using IMAP progressive binding reagent, which introduces binding beads which allow the reagent to specifically bind to phosphate residues via covalent co-ordination complex bonds.
(§3) iMAP binding solution stops Crosstide/kinase interaction and specifically binds phosphorylated substrates. The degree of phosphorylation is determined by fluorescent polarisation (excitation 485 nm; emission 528 nm) or the reduction in speed of rotation of the excited substrate.
(§4) The following materials were used in the assay: • a) Activated AKT isoforms (SignalChem.) dissolved in Complete Reaction buffer at a pre-determined concentration selected so that the assay was carried out in the linear range. • b) AKT substrate peptide: FAM Crosstide (R7110) Molecular Devices, diluted in complete reaction buffer. • c) iMAP Progressive Screening Express Kit (R8127) Molecular Devices • d) Complete Reaction Buffer containing 0.1% BSA, 10 mM Tris-HCl, 10 mM MgCl2, 0.05% NaN3 and 0.01% phosphate free BSA, 1 mM DTT • e) Progressive Binding Solution containing 75% Buffer A, 25% Buffer B and low volume Binding Reagent which contains the binding entity for the assay • f) ATP diluted in complete reaction buffer • g) Black polystyrene 384 well assay plates (Nunc). • h) Biotek Synergy 4 Hybrid Plate reader.
(§5) 5 μl of test compound was dissolved in DMSO (Sigma Aldrich) and serially diluted in complete reaction buffer to give a fourteen point half log dose response and plated into 384 well black plates. The compound was incubated at room temperature with activated AKT isoform ([…] ) at the pre-determined concentration, for 45 minutes.
(§6) 2.5 μl of ATP solution mixed with 2.5 μl of AKT substrate peptide (FAM Crosstide (R7110) Molecular Devices) were dispensed into each well and the plate centrifuged at 1000 rpm for 20 seconds to ensure homogenous mixing of reagents. The reaction mix was incubated in the dark for one hour at room temperature.
(§7) The kinase reaction was stopped by the addition of Progressive Binding Solution and the mixture allowed to equilibrate for one hour in the dark, at room temperature.
(§8) The fluorescent polarisation generated in each well was determined using a […] Synergy 4 Hybrid plate reader. In brief, each reaction solution was excited at 485 nm with the emission measured at 528 nm in both the parallel and perpendicular pathway.
(§9) The polarisation value generated in each well was calculated by Gen5 software (Biotek) and the % inhibition of kinase activity compared to vehicle control was calculated via GraphPad Prism. IC50 values for each compound were calculated by non-linear regression analysis using Prism software.
(§10) All plates were internally controlled by two methods. Firstly, by calculating the signal:noise ratio; based on kinase polarisation without inhibitor and polarisation generated by complete reaction buffer in the absence of activated kinase. Secondly by determining IC50 values generated by known inhibitors of the AKT isoforms.

Another experiment addresses T2, AKT2 (Homo sapiens, UniProt P31751).
T2 construct: purchased SignalChem
The experiment is described as follows: AKT Kinase Assay (IMAP fluorescent polarisation) vs AKT2. As for the experimental part:
as §1, §2, §3, §4, §5, §6, §7, §8, §9, §10

The next experiment concerns the target T3, AKT3 (Homo sapiens, UniProt Q9Y243).
T3 construct: purchased SignalChem
The experiment is described as follows: AKT Kinase Assay (IMAP fluorescent polarisation) vs AKT3. As for the experimental part: as §1, §2, §3, §4, §5, §6, §7, §8, §9, §10

Where only a bound is given, the exact number is not on record here.

The IC50 is the point on the concentration scale where inhibition reaches its midpoint.

T2 sequence (P31751 whole entry): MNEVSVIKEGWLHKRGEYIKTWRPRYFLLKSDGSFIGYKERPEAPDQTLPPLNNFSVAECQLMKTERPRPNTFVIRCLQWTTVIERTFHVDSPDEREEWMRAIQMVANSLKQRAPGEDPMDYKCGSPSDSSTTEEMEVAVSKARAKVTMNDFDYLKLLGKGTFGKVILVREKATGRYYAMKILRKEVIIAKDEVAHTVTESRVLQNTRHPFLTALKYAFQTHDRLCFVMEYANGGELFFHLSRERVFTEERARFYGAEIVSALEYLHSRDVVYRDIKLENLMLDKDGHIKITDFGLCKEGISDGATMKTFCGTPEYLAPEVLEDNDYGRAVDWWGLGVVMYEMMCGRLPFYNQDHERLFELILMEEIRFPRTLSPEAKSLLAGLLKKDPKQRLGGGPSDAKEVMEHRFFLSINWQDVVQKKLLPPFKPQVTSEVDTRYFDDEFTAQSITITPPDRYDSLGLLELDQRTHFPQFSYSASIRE
T1 sequence (P31749 whole entry): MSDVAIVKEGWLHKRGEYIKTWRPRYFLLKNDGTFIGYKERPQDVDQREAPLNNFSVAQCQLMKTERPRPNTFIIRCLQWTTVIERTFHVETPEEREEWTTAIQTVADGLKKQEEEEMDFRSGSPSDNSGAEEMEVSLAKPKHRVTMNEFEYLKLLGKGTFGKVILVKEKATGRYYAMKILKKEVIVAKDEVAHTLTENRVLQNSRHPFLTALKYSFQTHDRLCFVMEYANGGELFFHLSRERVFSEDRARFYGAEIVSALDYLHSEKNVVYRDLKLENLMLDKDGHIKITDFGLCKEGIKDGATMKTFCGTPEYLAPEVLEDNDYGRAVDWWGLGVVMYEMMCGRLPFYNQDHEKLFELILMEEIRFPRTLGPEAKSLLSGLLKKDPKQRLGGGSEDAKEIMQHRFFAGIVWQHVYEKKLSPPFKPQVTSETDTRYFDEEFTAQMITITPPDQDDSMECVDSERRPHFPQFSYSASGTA
T3 sequence (Q9Y243 whole entry): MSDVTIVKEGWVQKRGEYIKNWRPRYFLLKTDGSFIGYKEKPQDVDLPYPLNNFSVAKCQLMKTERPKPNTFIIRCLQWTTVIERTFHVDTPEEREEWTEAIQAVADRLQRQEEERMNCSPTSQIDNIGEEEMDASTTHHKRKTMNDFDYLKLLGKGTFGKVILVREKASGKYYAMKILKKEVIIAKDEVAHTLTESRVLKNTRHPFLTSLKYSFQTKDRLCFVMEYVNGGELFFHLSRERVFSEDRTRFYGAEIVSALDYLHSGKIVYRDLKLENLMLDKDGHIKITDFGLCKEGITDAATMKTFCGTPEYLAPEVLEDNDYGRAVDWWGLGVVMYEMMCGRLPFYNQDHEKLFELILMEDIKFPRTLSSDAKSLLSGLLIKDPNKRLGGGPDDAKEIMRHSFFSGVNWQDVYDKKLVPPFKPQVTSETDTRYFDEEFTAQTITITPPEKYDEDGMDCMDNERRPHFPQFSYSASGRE

For the molecule `NC1(c2ccc(-c3nc4c(cc3-c3ccccc3)C(=O)CCC4)cc2)CCC1` [Example 1, 2-(4-(1-aminocyclobutyl)phenyl)-3-phenyl-7,8-dihydroquinolin-5(6H)-one], the IC50 is 1000 to 10000 nM at AKT1, 1000 to 10000 nM on AKT2 and over 10000 nM at AKT3.

As to `NC1(c2ccc(-c3nc4c(cc3-c3ccccc3)/C(=N/O)CCC4)cc2)CCC1` [Example 2, 2-(4-(1-aminocyclobutyl)phenyl)-3-phenyl-7,13-dihydroquinolin-5(6H)-one oxime], the values for the IC50 at AKT1, on AKT2 and at AKT3 were 100 to 1000 nM, 1000 to 10000 nM and over 10000 nM, respectively.

As for `CO/N=C1\CCCc2nc(-c3ccc(C4(N)CCC4)cc3)c(-c3ccccc3)cc21` [Example 3, 2-(4-(1-aminocyclobutyl)phenyl)-3-phenyl-7,8-dihydroquinolin-5(6H)-one O-methyl oxime], the IC50 is 1000 to 10000 nM on AKT1, over 10000 nM at AKT2 and over 10000 nM at AKT3.

Regarding `Cn1cc2c(n1)-c1cc(-c3ccccc3)c(-c3ccc(C4(N)CCC4)cc3)nc1CC2` [Example 5, 1-(4-(2-methyl-8-phenyl-4,5-dihydro-2H-pyrazolo[3,4-f]quinolin-7-yl)phenyl)cyclobutanamine], the values for the half-maximal inhibitory concentration (IC50) on AKT1, at AKT2 and on AKT3 were 100 to 1000 nM, 1000 to 10000 nM and over 10000 nM, respectively.

For `Cn1ncc2c1-c1cc(-c3ccccc3)c(-c3ccc(C4(N)CCC4)cc3)nc1CC2` [Example 6, 1-(4-(1-methyl-8-phenyl-4,5-dihydro-1H-pyrazolo[3,4-f]quinolin-7-yl)phenyl)cyclobutanamine], the IC50 on AKT1 lay in the range of 100 to 1000 nM; on AKT2 it was 1000 to 10000 nM; at AKT3, 1000 to 10000 nM.

Take `NC1(c2ccc(-c3nc4c(cc3-c3ccccc3)-c3n[nH]c(O)c3CC4)cc2)CCC1` [Example 7, 7-(4-(1-aminocyclobutyl)phenyl)-8-phenyl-4,5-dihydro-2H-pyrazolo[3,4f]quinolin-3-ol]: the figures for the IC50 on AKT1, on AKT2 and on AKT3 were at most 100 nM, 1000 to 10000 nM and over 10000 nM, respectively.

In the case of `CC12CCc3nc(-c4ccc(C5(N)CCC5)cc4)c(-c4ccccc4)cc3C1=NNC2=O` (stereo not drawn) [Example 8, 7-(4-(1-aminocyclobutyl)phenyl)-3a-methyl-8-phenyl-4,5-dihydro-2H-pyrazolo[3,4-f]quinolin-3(3aH)-one], the IC50 on AKT1 was 100 to 1000 nM; at AKT2 it was 100 to 1000 nM; at AKT3, over 10000 nM.

On to `CSc1[nH]nc2c1CCc1nc(-c3ccc(C4(N)CCC4)cc3)c(-c3ccccc3)cc1-2` [Example 9, 1-(4-(3-(methylthio)-8-phenyl-4,5-dihydro-2H-pyrazolo[3,4-f]quinolin-7-yl)phenyl)cyclobutanamine], for which the IC50 is 100 to 1000 nM on AKT1, 1000 to 10000 nM at AKT2 and over 10000 nM on AKT3.

Regarding `CS(=O)(=O)c1[nH]nc2c1CCc1nc(-c3ccc(C4(N)CCC4)cc3)c(-c3ccccc3)cc1-2` [Example 10, 1-(4-(3-(methylsulfonyl)-8-phenyl-4,5-dihydro-2H-pyrazolo[3,4-f]quinolin-7-yl)phenyl)cyclobutanamine], the IC50 at AKT1 is 100 to 1000 nM; on AKT2, 1000 to 10000 nM; on AKT3, over 10000 nM.

In the case of `CNc1[nH]nc2c1CCc1nc(-c3ccc(C4(N)CCC4)cc3)c(-c3ccccc3)cc1-2` [Example 11, 7-(4-(1-aminocyclobutyl)phenyl)-N-methyl-8-phenyl-4,5-dihydro-2H-pyrazolo[3,4-f]quinolin-3-amine], the figures for the IC50 at AKT1, on AKT2 and on AKT3 were 100 to 1000 nM, 100 to 1000 nM and over 10000 nM, respectively.

As to `NC1(c2ccc(-c3nc4c(cc3-c3ccccc3)-c3n[nH]c(NCCO)c3CC4)cc2)CCC1` [Example 12, 2-((7-(4-(1-aminocyclobutyl)phenyl)-8-phenyl-4,5-dihydro-2H-pyrazolo[3,4-f]quinolin-3-yl)amino)ethanol], the figures for the IC50 at AKT1, on AKT2 and on AKT3 were at most 100 nM, 1000 to 10000 nM and over 10000 nM, respectively.

`NC1(c2ccc(-c3nc4c(cc3-c3ccccc3)-c3n[nH]c(N5CCOCC5)c3CC4)cc2)CCC1` [Example 13, 1-(4-(3-morpholino-8-phenyl-4,5-dihydro-2H-pyrazolo[3,4-f]quinolin-7-yl)phenyl)cyclobutanamine]: the values for the IC50 on AKT1, on AKT2 and on AKT3 were 100 to 1000 nM, 100 to 1000 nM and 1000 to 10000 nM, respectively.

Take `Cc1nc2c(n1O)CCc1nc(-c3ccc(C4(N)CCC4)cc3)c(-c3ccccc3)cc1-2` [Example 14, 7-(4-(1-aminocyclobutyl)phenyl)-2-methyl-8-phenyl-4,5-dihydro-3H-imidazo[4,5-f]quinolin-3-ol]: the concentration for half-maximal inhibition (IC50) was in the range of 100 to 1000 nM at AKT1, 1000 to 10000 nM at AKT2 and 1000 to 10000 nM at AKT3.

On to `Cc1nc2c([nH]1)CCc1nc(-c3ccc(C4(N)CCC4)cc3)c(-c3ccccc3)cc1-2` [Example 15, 1-(4-(2-methyl-8-phenyl-4,5-dihydro-3H-imidazo[4,5-f]quinolin-7-yl)phenyl)cyclobutanamine], for which the values for the IC50 on AKT1, at AKT2 and at AKT3 were 100 to 1000 nM, 1000 to 10000 nM and 1000 to 10000 nM, respectively.

As to `NC1(c2ccc(-c3nc4c(cc3-c3ccccc3)-c3ncncc3CC4)cc2)CCC1` [Example 16, 1-(4-(9-phenyl-5,6-dihydropyrido[2,3-h]quinazolin-8-yl)phenyl)-cyclobutanamine], the IC50 is at most 100 nM on AKT1, 100 to 1000 nM at AKT2 and 1000 to 10000 nM on AKT3.

Turning to `Nc1ncc2c(n1)-c1cc(-c3ccccc3)c(-c3ccc(C4(N)CCC4)cc3)nc1CC2` [Example 17], the IC50 lay within 100 to 1000 nM on AKT1, 1000 to 10000 nM at AKT2 and 1000 to 10000 nM on AKT3.

With `CC1(C)CC(=O)c2cc(-c3ccccc3)c(-c3ccc(C4(N)CCC4)cc3)nc2C1` [Example 18, 2-(4-(1-aminocyclobutyl)phenyl)-7,7-dimethyl-3-phenyl-7,8-dihydroquinolin-5(6H)-one], the IC50 on AKT1 was 1000 to 10000 nM; at AKT2 it was 1000 to 10000 nM; on AKT3, over 10000 nM.

Consider `CC1(C)Cc2nc(-c3ccc(C4(N)CCC4)cc3)c(-c3ccccc3)cc2-c2n[nH]cc21` [Example 19, 1-(4-(4,4-dimethyl-8-phenyl-4,5-dihydro-2H-pyrazolo[3,4-f]quinolin-7-yl)phenyl)cyclobutanamine], for which the results for the IC50 at AKT1, on AKT2 and at AKT3 were 100 to 1000 nM, 100 to 1000 nM and over 10000 nM, respectively.

Regarding `NC1(c2ccc(-c3nc4c(cc3-c3ccccc3)C(=O)CCCC4)cc2)CCC1` [Example 20, 2-(4-(1-aminocyclobutyl)phenyl)-3-phenyl-6,7,8,9-tetrahydro-5H-cyclohepta[b]pyridin-5-one], the IC50 was 100 to 1000 nM at AKT1, 1000 to 10000 nM on AKT2 and over 10000 nM at AKT3.

Consider `NC1(c2ccc(-c3nc4c(cc3-c3ccccc3)-c3n[nH]cc3CCC4)cc2)CCC1` [Example 21, 1-(4-(9-phenyl-2,4,5,6-tetrahydropyrazolo[3′,4′:3,4]cyclohepta[1,2-b]pyridin-8-yl)phenyl)cyclobutanamine], for which the IC50 at AKT1 was 100 to 1000 nM; at AKT2, 1000 to 10000 nM; at AKT3, over 10000 nM.

As to `NC1(c2ccc(-c3nc4c(cc3-c3ccccc3)C(=O)NCC4)cc2)CCC1` [Example 22, 2-(4-(1-aminocyclobutyl)phenyl)-3-phenyl-7,8-dihydro-1,6-naphthyridin-5(6H)-one], the IC50 on AKT1 was at most 100 nM; on AKT2 it was 1000 to 10000 nM; at AKT3 it was over 10000 nM.

On to `CN1CCc2nc(-c3ccc(C4(N)CCC4)cc3)c(-c3ccccc3)cc2C1=O` [Example 23, 2-(4-(1-aminocyclobutyl)phenyl)-6-methyl-3-phenyl-7,8-dihydro-1,6-naphthyridin-5(6H)-one], for which the figures for the IC50 at AKT1, on AKT2 and on AKT3 were 100 to 1000 nM, 1000 to 10000 nM and over 10000 nM, respectively.

Take `N#CCN1CCc2nc(-c3ccc(C4(N)CCC4)cc3)c(-c3ccccc3)cc2C1=O` [Example 24, 2-(2-(4-(1-aminocyclobutyl)phenyl)-5-oxo-3-phenyl-7,8-dihydro-1,6-naphthyridin-6(5H)-yl)acetonitrile]: the results for the IC50 on AKT1, at AKT2 and on AKT3 were 1000 to 10000 nM, 100 to 1000 nM and over 10000 nM, respectively.
